Experimental data from PubChem BioAssay AID1963966 (Molecular Pharmacology Branch, DTP, NCI, 2024).

System: 935938-334-R-J1-PDC spheroids with HUVEC/MSC, viability
Test: Anticancer human tumor 935938-334-R-J1-PDC patient-derived small intestine adenocarcinoma cell line growth inhibition [PI3K]
Details: for IC50: curve of first compound; for viability, T/C: stronger effect = lower value; active = viability on the fitted dose curve at most 10% of control; inactive = the rest
Description: Combinatorial screen of targeted agents with the PI3K inhibitors inavolisib, alpelisib, duvelisib, and copanlisib in multi-cell type tumor spheroids
A high-throughput screen of multi-cell type tumor spheroids was designed to identify active combinations of targeted small molecules and PI3K pathway inhibitors. Complex spheroids include a stromal component modeled by human endothelial cells (HUVEC) and fibroblasts modeled by human mesenchymal stem cells (MSCs). The concentration ranges selected for each drug and investigational agent were based upon clinically achievable concentrations if the clinical Cmax of the agent was known.
Compounds. The drugs and investigational agents: inavolisib (NSC800729), alpelisib (NSC765974), duvelisib (NSC772469), copanlisib (NSC816437), ipatasertib (NSC767898), afuresertib (NSC778305), talazoparib (NSC767125), sapanisertib (NSC764658), selumetinib (NSC741078), tovorafenib (DAY101, NSC766906), vemurafenib (NSC761431), ravoxertinib (NSC781343), sotorasib (NSC818433), MRTX1133 (NSC 836407), abemaciclib (NSC 768073), palbociclib (NSC758247), venetoclax (NSC 766270), SY5609 (NSC837396), enzalutamide (NSC755605), and darolutamide (NSC825331), were obtained from the National Cancer Institute (NCI) Developmental Therapeutics Program Chemical Repository. The FDA-approved anticancer drug set is available from the NCI Developmental Therapeutics Program. […] The stock solutions were prepared in dimethyl sulfoxide (DMSO, Sigma-Aldrich, St. Louis, MO, cat. D2650) at 800-fold the tested concentration and stored at -70 degrees C prior to their use. All drugs and investigational agents were tested over a range starting from a high concentration at or near the clinical Cmax and decreasing in half-log increments. If the clinical Cmax for an agent had not been determined, the highest concentration tested was 10 microM.
Cell Culture. All cells were maintained in an incubator at 37 degrees C and 5% CO2 with 95% humidity. The PDC lines were cultured according to standard operating procedures established by the NCI PDMR (https://pdmr.cancer.gov/sops/default.htm). All PDCs were thawed and cultured in Matrigel-coated flasks prepared with a working solution of 1X Ham's F-12 nutrient mix, without supplementation (Invitrogen, Waltham, MA, cat. 11765054), 100 U/mL penicillin-streptomycin (Invitrogen, cat. 15140122), and 2.5% Matrigel (Corning Inc., Corning, NY, cat. 354248) for the first three passages. The 354836-022-R-J1-PDC, 475296-252-R-J1-PDC, and 997726-040-R-J2-PDC lines were cultured in 6A media, which includes advanced DMEM/F-12 (Thermo Fisher Scientific, cat. 12634028), 10 mM HEPES (Thermo Fisher Scientific, cat. 15630080), 1X GlutaMAX supplement (Thermo Fisher Scientific, cat. 35050061), 0.1 mg/mL primocin (InvivoGen, San Diego, CA, cat. ant-pm-2), 10% defined fetal bovine serum, heat inactivated (HyClone Laboratories Inc., Logan, UT, cat. SH30070.03HI), 50% L-WRN conditioned media (ATCC, cat. CRL-3276), 1.25 mM N-Acetyl-L-cysteine (Sigma-Aldrich, cat. A9165), 10 mM nicotinamide (Sigma-Aldrich, cat. N0636), 1X B-27 supplement (Thermo Fisher Scientific, cat. 17504044), 1X N-2 supplement (Thermo Fisher Scientific, cat. 17502048), and 10 microM Y-27632 dihydrochloride (Tocris Bioscience, Bristol, United Kingdom, cat. 1254). The 624824-186-R-J2-PDC line was cultured in 6C/Colon 1B media, which includes all 6A media components plus 50 ng/mL human EGF recombinant protein (Thermo Fisher Scientific, cat. PHG0311). […]

[1] = second compound 0.00316 µM, first compound 0.0316 µM
[2] = second compound 0.00316 µM, first compound 0.1 µM
[3] = second compound 0.01 µM, first compound 0.0316 µM
[4] = second compound 0.01 µM, first compound 0.1 µM
[5] = second compound 0.0316 µM, first compound 0.0316 µM
[6] = second compound 0.0316 µM, first compound 0.1 µM
[7] = second compound 0.1 µM, first compound 0.0316 µM
[8] = second compound 0.1 µM, first compound 0.1 µM
[9] = second compound 0.316 µM, first compound 0.0316 µM
[10] = second compound 0.316 µM, first compound 0.1 µM
[11] = second compound 1 µM, first compound 0.0316 µM
[12] = second compound 1 µM, first compound 0.1 µM
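Also: compound exposure lasted seven days before viability was read.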
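For viability, T/C in this document: percent of vehicle DMSO treated spheroid viability so 100% = untreated.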

CC(=O)c1c(C)c2cnc(Nc3ccc(N4CCNCC4)cn3)nc2n(C2CCCC2)c1=O + CC(Nc1ccc2c(c1)OCCn1cc(N3C(=O)OCC3C(F)F)nc1-2)C(N)=O
59 nM: IC50 (second compound 0.0316 µM)
61.7 nM: IC50 (second compound 0.01 µM)
inactive: viability, T/C (second compound 0.00316 µM, first compound 0.000316 µM) 82.7% | viability, T/C (second compound 0.00316 µM, first compound 0.001 µM) 66% | viability, T/C (second compound 0.00316 µM, first compound 0.00316 µM) 97.2% | viability, T/C (second compound 0.00316 µM, first compound 0.01 µM) 90.4% | viability, T/C [1] 95.5% | viability, T/C [2] 24.6% | viability, T/C (second compound 0.01 µM, first compound 0.000316 µM) 81.3% | viability, T/C (second compound 0.01 µM, first compound 0.001 µM) 70.7% | viability, T/C (second compound 0.01 µM, first compound 0.00316 µM) 92.6% | viability, T/C (second compound 0.01 µM, first compound 0.01 µM) 86.7% | viability, T/C [3] 82.7% | viability, T/C [4] 26.5% | viability, T/C (second compound 0.0316 µM, first compound 0.000316 µM) 67.7% | viability, T/C (second compound 0.0316 µM, first compound 0.001 µM) 65.7% | viability, T/C (second compound 0.0316 µM, first compound 0.00316 µM) 112% | viability, T/C (second compound 0.0316 µM, first compound 0.01 µM) 81.4% | viability, T/C [5] 98.2% | viability, T/C [6] 20.3% | viability, T/C (second compound 0.1 µM, first compound 0.000316 µM) 76.2% | viability, T/C (second compound 0.1 µM, first compound 0.001 µM) 81.7% | viability, T/C (second compound 0.1 µM, first compound 0.00316 µM) 72.4% | viability, T/C (second compound 0.1 µM, first compound 0.01 µM) 91.3% | viability, T/C [7] 66.4% | viability, T/C [8] 19.3% | viability, T/C (second compound 0.316 µM, first compound 0.000316 µM) 63.5% | viability, T/C (second compound 0.316 µM, first compound 0.001 µM) 65.1% | viability, T/C (second compound 0.316 µM, first compound 0.00316 µM) 74.8% | viability, T/C (second compound 0.316 µM, first compound 0.01 µM) 77.2% | viability, T/C [9] 70.7% | viability, T/C [10] 19.5% | viability, T/C (second compound 1 µM, first compound 0.000316 µM) 47.9% | viability, T/C (second compound 1 µM, first compound 0.001 µM) 57.5% | viability, T/C (second compound 1 µM, first compound 0.00316 µM) 82.2% | viability, T/C (second compound 1 µM, first compound 0.01 µM) 67.3% | viability, T/C [11] 47.3% | viability, T/C [12] 20.6%
62.3 nM: IC50 (second compound 0.00316 µM)
47.2 nM: IC50 (second compound 0.1 µM)
49.9 nM: IC50 (second compound 0.316 µM)
26.2 nM: IC50 (second compound 1 µM)

CCCS(=O)(=O)Nc1ccc(F)c(C(=O)c2c[nH]c3ncc(-c4ccc(Cl)cc4)cc23)c1F + CC(Nc1ccc2c(c1)OCCn1cc(N3C(=O)OCC3C(F)F)nc1-2)C(N)=O
5830 nM: IC50 (second compound 0.316 µM)
7580 nM: IC50 (second compound 0.01 µM)
6910 nM: IC50 (second compound 0.00316 µM)
7080 nM: IC50 (second compound 0.0316 µM)
inactive: viability, T/C [1] 100% | viability, T/C [2] 101% | viability, T/C (second compound 0.00316 µM, first compound 0.316 µM) 162% | viability, T/C (second compound 0.00316 µM, first compound 1 µM) 103% | viability, T/C (second compound 0.00316 µM, first compound 3.16 µM) 92.6% | viability, T/C (second compound 0.00316 µM, first compound 10 µM) 30.3% | viability, T/C [3] 136% | viability, T/C [4] 89.5% | viability, T/C (second compound 0.01 µM, first compound 0.316 µM) 136% | viability, T/C (second compound 0.01 µM, first compound 1 µM) 103% | viability, T/C (second compound 0.01 µM, first compound 3.16 µM) 118% | viability, T/C (second compound 0.01 µM, first compound 10 µM) 28.9% | viability, T/C [5] 92.3% | viability, T/C [6] 101% | viability, T/C (second compound 0.0316 µM, first compound 0.316 µM) 98.3% | viability, T/C (second compound 0.0316 µM, first compound 1 µM) 110% | viability, T/C (second compound 0.0316 µM, first compound 3.16 µM) 100% | viability, T/C (second compound 0.0316 µM, first compound 10 µM) 28.6% | viability, T/C [7] 93.6% | viability, T/C [8] 78.1% | viability, T/C (second compound 0.1 µM, first compound 0.316 µM) 104% | viability, T/C (second compound 0.1 µM, first compound 1 µM) 118% | viability, T/C (second compound 0.1 µM, first compound 3.16 µM) 88.5% | viability, T/C (second compound 0.1 µM, first compound 10 µM) 31.3% | viability, T/C [9] 84.2% | viability, T/C [10] 92.4% | viability, T/C (second compound 0.316 µM, first compound 0.316 µM) 84.6% | viability, T/C (second compound 0.316 µM, first compound 1 µM) 102% | viability, T/C (second compound 0.316 µM, first compound 3.16 µM) 78.9% | viability, T/C (second compound 0.316 µM, first compound 10 µM) 24.6% | viability, T/C [11] 72.5% | viability, T/C [12] 66.9% | viability, T/C (second compound 1 µM, first compound 0.316 µM) 86.5% | viability, T/C (second compound 1 µM, first compound 1 µM) 62.9% | viability, T/C (second compound 1 µM, first compound 3.16 µM) 77% | viability, T/C (second compound 1 µM, first compound 10 µM) 22.9%
5370 nM: IC50 (second compound 1 µM)
6880 nM: IC50 (second compound 0.1 µM)
